# Test results from patent US20230302022A1, “PREVENTING OR MITIGATING CHEMOTHERAPY INDUCED ALOPECIA USING VITAMIN D” (priority 2016, published 2023).
# “Also recorded” adds a separate entry of the source.
# Assays:
# [1] = test system: HepG2 (liver cancer); experiment: Cell growth / viability assay, HepG2; type: cell-based
# Procedure: (§1) The drug treatment period was usually three days. At the end of the three days, the background OD of the 96-well plate was read at 280 nm, before 20 μL of the “Substrate Cell Titer 96 Aqueous One Solution Reagent” (Promega) was added to each well. The plate was returned to the 37° C. incubator, and its OD at 490 nm was read each hour until an OD of approximately 1.5 was reached. The net OD increase was calculated by subtracting the pre-substrate OD reading.
# (§2) The impact of the drug on the cells was calculated by comparing the OD at different concentrations in relation to the OD of the control wells (without the drug).
# (§3) Then these pretreated cells were utilized to set up the cell based assay.
# [2] = test system: Gottingen Minipigs; experiment: 4-week dermal toxicity study in Gottingen Minipigs; details: twice daily, 29 consecutive days, 2.1 mL
# Procedure: Observations for morbidity, mortality, injury, and the availability of food and water were conducted twice daily for all animals. Clinical observations were conducted weekly.
# [3] = test system: SKMEL-28 (melanoma); experiment: Cell growth / viability assay, SKMEL-28; type: cell-based
# Procedure: The drug treatment period was usually three days. At the end of the three days, the background OD of the 96-well plate was read at 280 nm, before 20 μL of the “Substrate Cell Titer 96 Aqueous One Solution Reagent” (Promega) was added to each well. […] The net OD increase was calculated by subtracting the pre-substrate OD reading. The impact of the drug on the cells was calculated by comparing the OD at different concentrations in relation to the OD of the control wells (without the drug). The results of the Net OD as a function of drug concentration was plotted and used to determine ED50 values.
# [4] = test system: PaCa2 (pancreatic carcinoma); experiment: Cell growth / viability assay, PaCa2; type: cell-based
# Procedure: as §1, §2, §3
# [5] = test system: MIAC51 (chloroleukemia cells); experiment: Chloroleukemia (MIAC51) in rats: cure / survival under chemotherapy with topical calcitriol; type: in vivo, rat
# Procedure: For experiments in which rats were transplanted with chloroleukemia, on Day 5 after birth, rats were randomly divided into three groups of 45 each. All rats received 1×10^5 chloroleukemic cell line MIAC51 (i.p.) in 0.1 mL of serum free (SF) RPMI. MIAC51 were cultured in RPMI 1640 supplemented with L-glutamine and 10% fetal bovine serum at 37° C. in a 5% CO2, 100% humidity incubator. Cells were grown to 50% confluency (1.5×106 mL) collected in 50 mL conical tubes, centrifuged at 600 g×10 min. at room temperature and resuspended in SF-RPMI at a concentration of 1×10^6/mL. Group 1 rats received no further treatment. Group 2 rats received topical vehicle and CTX on day 13. […] Topical applications were performed as described above.
# On day 23 after birth, a sample of blood was taken from all rats and differentials performed. Rats with leukemia were sacrificed, rats without leukemia were kept and a second differential performed on day 31, at any point if leukemia was detected, animals were sacrificed by CO2 asphyxiation.
# On day 5 after birth all rats received 1×105 MIAC51 intraperitoneally in 0.1 mL of serum free (SF) RPMI. MIAC51 were cultured in RPMI 1640 supplemented with L-glutamine and 10% fetal bovine serum at […] in a 5% CO2, 100% humidity incubator. Cells were grown to 50% confluency (1.5×106 mL) collected in 50 mL conical tubes, centrifuged at 600 g for 10 minutes at room temperature and resuspended in SF-RPMI at a concentration of 1×10^6/mL prior to injection.
# […]
compound,measurement,setting,value
"C=C1/C(=C\C=C2/CCC[C@]3(C)[C@@H]([C@H](C)CCCC(C)(C)O)CC[C@@H]23)C[C@@H](O)C[C@@H]1O [Calcitriol, (5Z,7E)-9,10-secocholesta-5,7.10(19Hriene-1 a,33.25-triol]",effect of calcitriol on the cytotoxic effect of Doxorubicin,[1]; Hep-G2,did not appear to appreciably alter
same,5-FU ED50 curve with vs without calcitriol,"[1]; Hep-G2, 0.1 μg/mL calcitriol",not significantly different
same,"response to doxorubicin, cisplatin and erlotinib after calcitriol exposure","[1]; Hep-G2, 0.1 μg/mL calcitriol for two passages",did not alter
same,no-observed-adverse-effect-level (NOAEL),[2],10.31 µg/mL
same,effect of calcitriol on cell growth,[3]; SKMEL-28,no significant growth promoting or growth inhibiting effects
same,effect of calcitriol on the cytotoxic effect of Doxorubicin,[3]; SKMEL-28,did not appear to appreciably alter
same,5-FU ED50 curve with vs without calcitriol,"[3]; SKMEL-28, 0.1 μg/mL calcitriol",not significantly different
same,effect of calcitriol on cell growth,"[4]; PaCa2, wide range of calcitriol concentrations",no significant growth promoting or growth inhibiting effects; also recorded: not responsive
same,effect of calcitriol on the cytotoxic effect of Doxorubicin,[4]; PaCa-2,did not appear to appreciably alter
same,5-FU ED50 curve with vs without calcitriol,"[4]; PaCa-2, 0.1 μg/mL calcitriol",not significantly different
same,"response to doxorubicin, cisplatin and erlotinib after calcitriol exposure","[4]; PaCa-2, 0.1 μg/mL calcitriol for two passages",did not alter
same,"Survival Rate, %","[5]; ADM, Paclitaxel and Etoposide, after Two Rounds",80%
same,"Survival Rate, %","[5]; CTX and ADM, after Two Rounds",50%
same,"Survival Rate, %","[5]; CTX, ADM and ARA-C, after Two Rounds",78%
same,"Survival Rate, %","[5]; CTX, Paclitaxel and Etoposide, after Two Rounds",83%
same,"Survival Rate, %","[5]; CTX, after Two Rounds of Chemotherapy",25%
same,protection of the cancer cells from chemotherapy (cyclophosphamide),"[5]; Long Evans rats injected with MIAC51, topical calcitriol",does not protect the cancer cells from chemotherapy; also recorded: have not shown protection; also recorded: not protecting the cancer cells
same,effect on the cure rate associated with cyclophosphamide,"[5]; chloroleukemia induced (MIAC51), calcitriol 1-3 μg/mL study",did not affect the cure rate
same,interference with the cure rate,"[5]; cyclophosphamide and doxorubicin group, cure rate 50-55%",did not interfere with the cure rate
same,interference with the cure rate,"[5]; cyclophosphamide group, cure rate 20-25%",did not interfere with the cure rate
same,interference with the cure rate,"[5]; cyclophosphamide, doxorubicin and cytarabine group, cure rate 75-80%",did not interfere with the cure rate
same,interference with the cure rate,"[5]; cyclophosphamide, paclitaxel and etoposide group, cure rate 78-83%",did not interfere with the cure rate
same,interference with the cure rate,"[5]; doxorubicin, paclitaxel and etoposide group, cure rate 80-83%",did not interfere with the cure rate
same,effect on the efficacy of the chemotherapy agents,[5]; number of animals free from leukemia,did not affect the efficacy of the chemotherapy agents
